In patent US20240366589A1, “NHE3-BINDING COMPOUNDS AND METHODS FOR INHIBITING PHOSPHATE TRANSPORT” (Ardelyx, Inc., priority 2013, published 2024):

Legend:
[1] = system: absorption of sodium from the intestinal lumen; test: Fecal form score (FFS) 16 h after oral dose in rats; type: in vivo, rat; conditions: oral gavage, 16 h post-dose, scale 1-5
How it was run: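 Eight-week-old Sprague-Dawley rats (n=6) dosed by oral gavage with compound or water vehicle between 4 and 5 PM, then housed in metabolic cages with food and water ad libitum. At 16 h, fecal form scored 1 (normal pellet) to 5 (liquid streams) by two observers; group mean reported.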

[2] = system: phosphorus and calcium levels in the urine of rats; test: Urinary excretion of phosphate and calcium in rats (16 h overnight urine); type: in vivo, rat; conditions: rats, oral gavage, 16 h post-dose
[3] = system: absorption of sodium from the intestinal lumen; test: Inhibition of intestinal sodium absorption: urinary sodium (uNa) 16 h after single oral dose in rats; type: in vivo, rat; conditions: oral gavage, 16 h post-dose
How it was run: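 Eight-week-old Sprague-Dawley rats (n=6) given single oral gavage of compound or water vehicle in the late afternoon, then kept in metabolic cages with chow and water ad libitum. Urine collected over 16 h; sodium quantified by ion chromatography and expressed as % of vehicle mean, compared by one-way ANOVA with Dunnett's test.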

[4] = target: T1, Rat NHE3 (Rattus norvegicus, UniProt P26433); test: Cell-based NHE3 activity under prompt conditions (OK cells, BCECF pH recovery), rat NHE3; conditions: prompt conditions
T1 construct: expressed in transfected cells; host or cells: Opossum kidney (OK) cells (ATCC), electroporation
How it was run: (§1)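 Cells (OK line, electroporated with rat or human NHE3) are washed in NaCl-HEPES pH 7.4, then dye-loaded 30 min at room temperature with 5 μM BCECF-AM in NH4Cl buffer.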

[5] = target: T2, Human NHE3 (Homo sapiens, UniProt P48764); test: Cell-based NHE3 activity under prompt conditions (OK cells, BCECF pH recovery), human NHE3; conditions: prompt conditions
T2 construct: expressed in transfected cells; host or cells: Opossum kidney (OK) cells (ATCC), electroporation
T2 sequence (P48764 26-834): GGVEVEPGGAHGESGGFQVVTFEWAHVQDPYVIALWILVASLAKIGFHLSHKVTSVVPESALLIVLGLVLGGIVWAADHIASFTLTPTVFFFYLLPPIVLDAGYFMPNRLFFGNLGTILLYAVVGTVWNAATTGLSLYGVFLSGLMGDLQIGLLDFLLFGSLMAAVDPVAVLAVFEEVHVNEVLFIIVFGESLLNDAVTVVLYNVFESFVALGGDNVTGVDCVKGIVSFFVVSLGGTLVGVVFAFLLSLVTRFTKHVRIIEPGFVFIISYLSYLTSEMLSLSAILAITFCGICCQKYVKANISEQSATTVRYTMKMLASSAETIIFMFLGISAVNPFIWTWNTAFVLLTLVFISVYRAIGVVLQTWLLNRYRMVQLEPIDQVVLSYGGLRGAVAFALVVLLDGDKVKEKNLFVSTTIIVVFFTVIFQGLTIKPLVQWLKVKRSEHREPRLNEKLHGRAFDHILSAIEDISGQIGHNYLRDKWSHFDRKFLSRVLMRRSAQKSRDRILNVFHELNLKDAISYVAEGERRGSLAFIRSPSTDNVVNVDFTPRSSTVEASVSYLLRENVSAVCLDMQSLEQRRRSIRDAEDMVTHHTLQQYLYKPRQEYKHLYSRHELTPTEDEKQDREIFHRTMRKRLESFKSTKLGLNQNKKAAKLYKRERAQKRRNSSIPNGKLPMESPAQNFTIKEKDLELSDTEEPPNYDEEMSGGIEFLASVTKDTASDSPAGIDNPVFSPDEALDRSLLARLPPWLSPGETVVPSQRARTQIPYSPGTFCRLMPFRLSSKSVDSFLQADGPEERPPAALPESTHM
How it was run: as §1

T1 sequence (P26433 29-831): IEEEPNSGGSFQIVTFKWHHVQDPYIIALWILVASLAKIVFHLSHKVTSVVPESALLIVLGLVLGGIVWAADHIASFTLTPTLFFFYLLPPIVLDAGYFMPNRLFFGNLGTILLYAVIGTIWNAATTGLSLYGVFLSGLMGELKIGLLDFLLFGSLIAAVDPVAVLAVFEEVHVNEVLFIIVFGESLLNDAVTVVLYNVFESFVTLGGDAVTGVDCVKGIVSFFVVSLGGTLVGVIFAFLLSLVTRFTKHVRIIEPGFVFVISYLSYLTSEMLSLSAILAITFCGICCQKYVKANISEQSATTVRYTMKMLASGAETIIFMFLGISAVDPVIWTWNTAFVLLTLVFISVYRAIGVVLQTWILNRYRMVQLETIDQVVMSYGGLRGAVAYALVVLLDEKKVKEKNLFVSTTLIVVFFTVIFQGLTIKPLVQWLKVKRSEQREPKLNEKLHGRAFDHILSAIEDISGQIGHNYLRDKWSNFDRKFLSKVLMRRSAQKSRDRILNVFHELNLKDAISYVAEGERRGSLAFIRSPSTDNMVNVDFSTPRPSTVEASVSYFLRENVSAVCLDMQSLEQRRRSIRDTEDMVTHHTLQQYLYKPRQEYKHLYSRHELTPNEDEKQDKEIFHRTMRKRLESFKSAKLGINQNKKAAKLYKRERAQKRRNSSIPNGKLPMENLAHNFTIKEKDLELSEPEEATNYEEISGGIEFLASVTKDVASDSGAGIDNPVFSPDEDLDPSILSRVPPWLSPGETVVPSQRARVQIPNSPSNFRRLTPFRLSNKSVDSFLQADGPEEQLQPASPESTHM

SMILES | Fecal Form Score average ([1]; dose 10 mg/kg) | Urine P % of control ([2]; dose 10 mg/kg) | Urine Na % of control ([3]; dose 10 mg/kg) | IC50 ([4]; read-out: Prompt Rat NHE3 pIC50 (converted)) | Prompt Human NHE3 pIC50 [5] | Fecal Form Score average ([1]; dose 1 mg/kg) | Urine P % of control ([2]; dose 1 mg/kg) | Urine Na % of control ([3]; dose 1 mg/kg) | Prompt Rat NHE3 pIC50 [4] | Fecal Form Score average ([1]; dose 30 mg/kg) | Urine P % of control ([2]; dose 30 mg/kg) | Urine Na % of control ([3]; dose 30 mg/kg)
CN(CC(=O)NCCOCCOCCOCCN1CCN(c2ccc(-c3nc(NC(=N)N)nc4ccc(Cl)cc34)cc2)CC1)CC(=O)NCCOCCOCCOCCN1CCN(c2ccc(-c3c(Cl)ccc4nc(NC(=N)N)ncc34)cc2)CC1 [compound 21] | 1 | 101% | 66% | 794 nM | 7.00 |  |  |  |  |  |  | 
CN1Cc2c(Cl)cc(Cl)cc2[C@H](c2cccc(S(=O)(=O)NCCOCCOCCOCCN)c2)C1 [compound 22] | 2 | 40% | 19% |  | 6.95 | 1 | 64% | 91% | 7.34 |  |  | 
N=C(N)Nc1nc(-c2cccc(N3CCN(CCOCCOCCOCCNC(=O)CCOCCOCCOCCOCCOCCC(=O)NCCOCCOCCOCCN4CCN(c5cccc(-c6nc(NC(=N)N)nc7ccc(Cl)cc67)c5)CC4)CC3)c2)c2cc(Cl)ccc2n1 [compound 23] | 1 | 95% | 73% |  | 8.55 |  |  |  | 6.87 |  |  | 
N=C(N)Nc1nc(-c2ccc(N3CCN(CCOCCOCCOCCNC(=O)CCOCCOCCOCCOCCOCCC(=O)NCCOCCOCCOCCN4CCN(c5ccc(-c6nc(NC(=N)N)nc7ccc(Cl)cc67)cc5)CC4)CC3)cc2)c2cc(Cl)ccc2n1 [compound 24] | 1 | 80% | 100% |  | 8.58 |  |  |  | 7.68 | 3 | 70% | 27%
CN1Cc2c(Cl)cc(Cl)cc2[C@H](c2cccc(S(=O)(=O)NCCOCCOCCOCCNC(=O)COCC(=O)NCCOCCOCCOc3cccc(-c4nc(NC(=N)N)nc5ccc(Cl)cc45)c3)c2)C1 [compound 25] | 1 | 150% | 87% |  | 6.60 |  |  |  | 6.85 |  |  | 
C/C(=C\c1cc(F)c(Oc2ccc(S(=O)(=O)NCCOCCOCCOCCNC(=O)OCCOCCOCCOC(=O)NCCOCCOCCOCCNS(=O)(=O)c3ccc(Oc4c(F)cc(/C=C(\C)C(=O)N=C(N)N)cc4F)cc3)cc2)c(F)c1)C(=O)N=C(N)N [compound 26] | 1 | 77% | 78% |  | 7.70 |  |  |  | 7.50 |  |  | 
C/C(=C\c1cc(F)c(Oc2ccc(S(=O)(=O)NCCOCCOCCOCCNC(=O)CN(CCN(CC(=O)O)CC(=O)NCCOCCOCCOCCNS(=O)(=O)c3ccc(Oc4c(F)cc(/C=C(\C)C(=O)N=C(N)N)cc4F)cc3)CC(=O)O)cc2)c(F)c1)C(=O)N=C(N)N [compound 27] | 1 | 91% | 51% |  | 8.40 |  |  |  | 7.50 |  |  | 
NC(N)=Nc1nc(-c2cccc(N3CCN(CCOCCOCCNC(=O)NCCOCCOCCNC(=O)NCCCCNC(=O)NCCOCCOCCNC(=O)NCCOCCOCCN4CCN(c5cccc(-c6nc(N=C(N)N)nc7ccc(Cl)cc67)c5)CC4)CC3)c2)c2cc(Cl)ccc2n1 [compound 28] | 1 | 129% | 83% |  | 8.10 |  |  |  | 7.60 |  |  | 
C/C(=C\c1cc(F)c(Oc2ccc(S(=O)(=O)NCCOCCOCCOCCNC(=O)NCCCCNC(=O)NCCOCCOCCOCCNS(=O)(=O)c3ccc(Oc4c(F)cc(/C=C(\C)C(=O)N=C(N)N)cc4F)cc3)cc2)c(F)c1)C(=O)N=C(N)N [compound 29] | 1 | 102% | 92% |  | 8.10 |  |  |  | 7.50 |  |  | 
C/C(=C\c1cc(F)c(Oc2ccc(S(=O)(=O)NCCOCCOCCOCCNC(=O)N(C)CCCCN(C)C(=O)NCCOCCOCCOCCNS(=O)(=O)c3ccc(Oc4c(F)cc(/C=C(\C)C(=O)N=C(N)N)cc4F)cc3)cc2)c(F)c1)C(=O)N=C(N)N [compound 30] | 1 | 104% | 100% |  | 8.40 |  |  |  | 7.80 |  |  | 
C/C(=C\c1cc(F)c(Oc2ccc(S(=O)(=O)NCCOCCOCCOCCNC(=O)N3CCN(C(=O)NCCOCCOCCOCCNS(=O)(=O)c4ccc(Oc5c(F)cc(/C=C(\C)C(=O)N=C(N)N)cc5F)cc4)CC3)cc2)c(F)c1)C(=O)N=C(N)N [compound 31] | 1 | 81% | 96% |  | 7.70 |  |  |  | 7.70 |  |  | 
N=C(N)Nc1nc(-c2cccc(N3CCN(CCOCCOCCOCCNC(=O)CCOCCOCCOCCOCCOCCOCCOCCC(=O)NCCOCCOCCOCCN4CCN(c5cccc(-c6nc(NC(=N)N)nc7ccc(Cl)cc67)c5)CC4)CC3)c2)c2cc(Cl)ccc2n1 [compound 32] | 1 | 122% | 128% |  | 8.40 |  |  |  | 7.30 |  |  | 
CN(CC(=O)NCCOCCOCCNC(=O)NCCOCCOCCN1CCN(c2cccc(-c3nc(NC(=N)N)nc4ccc(Cl)cc34)c2)CC1)CC(=O)NCCOCCOCCNC(=O)NCCOCCOCCN1CCN(c2cccc(-c3nc(NC(=N)N)nc4ccc(Cl)cc34)c2)CC1 [compound 33] | 1 | 117% | 98% |  | 7.90 |  |  |  | 7.40 |  |  | 
CN(CC(=O)NCCOCCOCCNC(=O)NCCOCCOCCOCCOc1ccc(-c2nc(NC(=N)N)nc3ccc(Cl)cc23)cc1)CC(=O)NCCOCCOCCNC(=O)NCCOCCOCCOCCOc1ccc(-c2nc(NC(=N)N)nc3ccc(Cl)cc23)cc1 [compound 34] | 1 | 72% | 76% |  | 8.20 |  |  |  | 7.90 |  |  | 
